For series [1] the following is noted: indirect, fragment-based computational calculation; cited from earlier work.
The test system of another series is HL-60 cells. Put plainly: MTT cell proliferation assay. The class given is cell-based, human. To be noted: for IC50: Homo sapiens. As to the method:
Tumorigenic and non-tumorigenic cell lines were cultured as previously described in Hood K. A., West L. M., Northcote P. T., Berridge M. V., Miller J. H., Apoptosis (2001), 6, 207-219. These cell lines included HL-60 and KS62, two tumorigenic human myeloid leukemic cell lines, 32D clone 3 (32D), a non-tumorigenic murine myeloid cell line, 32D-ras, the ras-transformed derivative of 32D, H441, a human lung adenocarcinoma cell line, SH-SY5Y, a human neuroblastoma cell line, and LLC-PK1, a non-tumorigenic pig kidney cell line. IC50 values for Peloruside A in the different cell lines were determined using the tetrazolium-based MTT cell proliferation assay as previously described (Hood K. A et al.).

Another series concerns b-tubulin in HL-60 cells. The experiment in a line: in situ tubulin polymerization, immunoblot of soluble and particulate fractions. It counts as cell-based, human. The note with it: 5 h; for effect on proportion of soluble to polymerized tubulin: HL-60, different concentrations. An excerpt: A simple in situ cellular assay as described by Giannakakou P., Gussio R., Nogales E., Downing K. H., Zaharevitz D., Bollbuck B., Poy G., Sackett D., Nicolaou K. C., Fojo T., Proc. Nat. Acad. Sci. (USA) (2000), 97, 2904-2909 was used in which the shift in tubulin from depolymerized to polymerized forms was followed by electrophoresis and Western blotting of centrifuged particulate and cytosolic fractions. To summarize, 2×10^6 untreated and drug-exposed HL-60 cells were lysed by exposure for 5 min at 37° C. to […] of hypotonic buffer (1 mM MgCl2, 2 mM EGTA, 1% Nonidet P-40, 2 mM phenylmethylsulfonyl fluoride, 1 mg/mL aprotinin, 2 mg/mL pepstatin, and 20 mM Tris-HCl, pH 6.8) and the particulate fraction separated from the soluble cytosolic fraction by high speed centrifugation for 10 min in a bench-top centrifuge. Samples labeled ‘0 min’ received drug immediately before collection of the cells. The processing of the cells to the critical centrifugation step required approximately 30 min. The pellet was dissolved in […] of sample buffer (8 M urea, 4% CHAPS, 3 M thiourea, and 40 mM DTT). Twenty mL of loading buffer was added to each […] sample, the samples were vortexed and then boiled for 5 min. Twenty mL of each sample was loaded on an SDS/10% polyacrylamide gel and resolved by electrophoresis. b-Tubulin bands were identified by Western blotting using b-tubulin primary antibody ( 1/1000 dilution) following standard immunoblotting procedures with detection by enhanced chemiluminescence (Lumi-Light, Roche).
Scale bar (lower right)=500 nm.
A general note: A western blot detects proteins with antibodies after separation by electrophoresis.

In series [2] the test system is H441 (human lung adenocarcinoma). Put plainly: MTT cytotoxicity assay, 96 hours exposure. To be noted: H441; comparators at their respective LD50s. It counts as cell-based. As to the method:
The cytotoxicity of Peloruside A was tested in five cell lines:
H441 (human lung adenocarcinoma)
32D (murine myeloid) generally in accordance with the MTT assay of Burres et al., J. Cancer Research (1989), 49, 2935-2940.
Briefly, cell lines were maintained in Dulbecco's modified Eagle's medium: F12 medium (50:50) (Gibco) supplemented with 10% fetal calf serum (Gibco), […] Penicillin G, and […] streptomycin sulfate. After 96 hours exposure to the toxin, cell viability was determined by the MTT calorimetric assay. […] Data were analysed with the SYSTAT statistical program using a non-linear model fit, and IC50 values were calculated using a Logit-Log plot.
(In general: Tetrazolium assays rely on reduction of a dye to a coloured formazan, in cell work by metabolically active cells.)

Series [3] relates to H441 cells. Put plainly: cellular morphology, phase-contrast microscopy. The class given is cell-based, human. As to the method:
Phase-contrast photomicrographs of H441 human lung adenocarcinoma cells: untreated control cells (A) and cells exposed for 48 h to 100 nM Peloruside A (B) or 100 nM paclitaxel (C). Note the intracellular fiber bundles in approximately 10% of the treated cells and the numerous micronuclei, each with a dark central spot of condensed DNA. Scale bar=[…].

A further series deals with K562 cells. The experiment in a line: cellular morphology. It counts as cell-based, human. To be noted: K562, 2 days exposure, 100 nM.
Series [4] deals with human peripheral blood neutrophils. Put plainly: fMLP-activated respiratory burst, superoxide production (WST-1). The class given is cell-based. Set-up: dose or concentration left out as unconfirmed. As to the method:
(§1) The effect of Peloruside A and paclitaxel on superoxide production was determined using human peripheral blood neutrophils activated with […] N-formyl-met-leu-phe (fMLP) as described previously (Tan A. S., Berridge M. V., J. Immunol. Meth. (2000), 238, 59-68). In this microplate assay, the cell-impermeable tetrazolium salt, WST-1, is reduced to its soluble formazan and dye reduction measured at 450 nm as an initial rate over 10-20 min. Samples were equilibrated with cells for 3 min at 37° C. and the reaction initiated by adding fMLP. Measurement of anti-metabolic activity followed a similar microplate protocol except that HeLa cells were used instead of neutrophils, cells were not activated with fMLP, and the intermediate electron acceptor, 1-methoxy phenazine methosulfate at 25 mM, was included in the WST-1 reagent to facilitate detection of low potential electrons from the plasma membrane.

For the next series, the system named is HeLa cells. The experiment in a line: anti-metabolic activity, WST-1 reduction. It counts as cell-based. The note with it: 12-24 mM. As to the method:
as §1

For series [5], the system named is H441 cells. Put plainly: cell cycle by flow cytometry (PI) and mitotic index. The class given is cell-based, human. Set-up: metaphase-arrested cells (mitotic index): dose or concentration left out as unconfirmed. The note with it: H441, 24 h. As to the method:
Using standard methodology, the DNA of cells was stained with propidium iodide (PI), and the proportion of cells in different phases of the cell cycle was monitored by flow cytometry. Briefly, H441 cells were treated with […] for 24 h. Adherent cells were collected by trypsinization and added to those in suspension. The cells were then fixed with cold 70% ethanol overnight and stained with PI solution consisting of 45 mg/mL PI, 10 mg/mL RNaseA, and 0.1% glucose. After a 2 h incubation at RT, samples were analysed in a FACSort flow cytometer (Becton Dickinson).
Cells were treated with […] Peloruside A or paclitaxel, stained with PI, and counted by flow cytometry. For the mitotic index, cells were treated for 24 h with different concentrations of Peloruside A or paclitaxel, and the number of cells in mitosis divided by the total number of cells (n=at least 400 cells counted in each of 3 preparations).
A general note: Flow cytometry measures light scatter and fluorescence of single cells or particles in a stream.

Another series relates to purified tubulin. The experiment in a line: in vitro tubulin polymerization and electron microscopy. The class given is biochemical. Details: polymerization of purified tubulin in solution: dose or concentration left out as unconfirmed. As to the method:
Purified tubulin (approximately 7.5 mg protein) containing approximately 15% microtubule-associated proteins was obtained from Sigma and reconstituted in 0.1 M MES buffer, pH 6.8, 1 mM EGTA, 0.1 mM EDTA, 0.5 mM MgCl2, 1 mM DTT, 0.1 mM GTP, 1 mg/mL leupeptin, 1 mg/mL aprotinin, and 100 mg/mL sucrose as stabilizer. The reconstituted tubulin was incubated at 37° C. for 30 min in the presence of […] Peloruside A or […] paclitaxel. Samples […] were pipetted onto 400-mesh carbon- and Formvar-coated copper grids and left for 2 min at RT before blotting with filter paper. Each grid was stained with 5 mL of 1% uranyl acetate for 3 min at RT, then blotted with filter paper. Grids were air-dried overnight before examination in a Philips CM100 transmission electron microscope.
(B) Immunoblots following exposure to […] Peloruside A and […] paclitaxel for varying lengths of time. (C) Transmission electron micrograph of microtubules formed following treatment of purified soluble tubulin with […] Peloruside A for 30 min at 37° C. Scale bar (lower right)=500 nm.

Where two headings read alike, the source gives them in different places.

Regarding `C=C/C=C\[C@H](C)[C@H](OC(N)=O)[C@@H](C)[C@H](O)[C@@H](C)C/C(C)=C\[C@H](C)[C@@H](O)[C@@H](C)/C=C\[C@@H](O)C[C@@H]1OC(=O)[C@H](C)[C@@H](O)[C@H]1C` [Discodermolide, discodermolide], the “solubility relative to paclitaxel” value in series [1] is recorded as 160 fold.

For the molecule `CCC(/C=C(/C)C1C[C@H](OC)C[C@@H](O)C(C)(C)C(O)C(O)C(OC)C[C@H](O)C[C@H](OC)[C@@H](O)C(=O)O1)CO` (stereo partly shown) [Peloruside A reduction product], in the series with HL-60 cells (HL-60 cells), the “increase of IC50 relative to Peloruside A” value is 31 fold. The IC50 in the series with HL-60 cells (HL-60) came out at 221 ± 24 nM. In the series on b-tubulin in HL-60 cells, the “effect on proportion of soluble to polymerized tubulin” value is given as “no significant effect”.

As to `C=C1C[C@](OC)([C@H](O)C(=O)N[C@H]2OCO[C@H]3[C@@H]2O[C@H](C[C@H](O)CO)C(C)(C)[C@@H]3OC)O[C@H](C)[C@@H]1C` [mycalamide A, reference compound], the “nuclei break up into small vessicles (nuclear blebbing)” value in series [2] is “not been observed”.

With `CC(=O)O[C@H]1C(=O)[C@@]2(C)[C@H]([C@H](OC(=O)c3ccccc3)[C@]3(O)C[C@H](OC(=O)[C@H](O)[C@@H](NC(=O)c4ccccc4)c4ccccc4)C(C)=C1C3(C)C)[C@]1(OC(C)=O)CO[C@@H]1C[C@@H]2O` [paclitaxel, Paclitaxel, reference compound], the IC50 in the series with HL-60 cells (HL-60 cells, ± S.E.M., read-out: IC50) stood at 22 ± 8 nM. Also, the “treated cells with intracellular fiber bundles” value with H441 cells [3] (H441, 48 h, 100 nM) is “approximately 10%”. The micronuclei result in the series with H441 cells [3] (H441, 2 days exposure, 100 nM) is “multiple micronuclei were observed”; in the series on K562 cells, “multiple micronuclei were observed”. In the series on H441 cells [3] (H441, phase-contrast microscopy), the intracellular fiber bundles result was “large intracellular fiber bundles were observed”. Also, the “effect on neutrophil activation” value in series [4] was “no effect”. Moreover, the “effect on WST-1 reduction” value with HeLa cells is given as “little effect”. In the series with H441 cells [5], the cell cycle arrest result is on record as “partial cell cycle arrest at G2/M”. Moreover, the “metaphase-arrested cells (mitotic index)” value in the series with H441 cells [5] turned out to be 64±4%. In the series on b-tubulin in HL-60 cells (HL-60, 100 nM), the “b-tubulin remaining in the soluble fraction” value is listed as “No detectable b-tubulin remained in the soluble fraction”. Also, the “effect on proportion of soluble to polymerized tubulin” value in the series on b-tubulin in HL-60 cells is “dose-dependent shifts of soluble tubulin to the particulate fraction”. Moreover, the “polymerization of purified tubulin in solution” value with purified tubulin (30 min, 37° C., electron microscopy) was “polymerize in solution into typical, long, straight microtubules”. In addition, the “stability of induced microtubules” value in the series with purified tubulin (at 0C) is “stable”.

On to pateamine [reference compound], for which the “nuclei break up into small vessicles (nuclear blebbing)” value in [2] is given as “not been observed”.

In general, IC50 refers to the concentration that gives 50% inhibition.
